Assay results reported in patent US20090221095A1, “Colorimetric Screening of DNA Binding/Intercalating Agents with Gold Nanoparticle Probes” (NORTHWESTERN UNIVERSITY, priority 2005, published 2009).

Columns and labels:
Type in all cases: binding
[1] = tested on: duplex DNA between NP-1 and NP-2; experiment: Melting temperature of NP-1/NP-2 gold nanoparticle duplex nanoassemblies (520 nm); conditions: NP-1 and NP-2 1.5 nM each, intercalator 5 μM, 10 mM PBS pH 7.0, NaCl 0.1 M, control 26.4
Excerpt: (§1) This method also utilizes the aggregation-induced, red-to-blue color change associated with 13 nm Au nanoparticles. Gold nanoparticles are functionalized with one of two complementary thiol-modified oligonucleotide strands and are denoted NP-1 and NP-2. When NP-1 and NP-2 are combined, they form aggregates through a reversible DNA hybridization process. This process results in a red-to-blue color change due to a red-shifting and dampening of the nanoparticle plasmon resonance. Increasing the temperature above the melting temperature of the DNA reverses the process, and the particles dissociate with a concomitant blue-to-red color change. […] This increased stability is reflected by an increase in melting temperature. Note that the shape and breadth of the transition is almost independent of the intercalator (FIG. 4). Therefore, by monitoring the blue-to-red color transition of hybridized oligonucleotide-modified Au nanoparticles in the presence of different compounds, the relative strength of intercalator binding can be determined with the naked-eye.
(§2) The assay is initiated by mixing NP-1 and NP-2 (1.5 nM each) in a 1:1 molar ratio in 10 mM PBS buffer (pH=7.0, NaCl 0.1 M. The melting temperatures of the nanoassemblies (NP-1 and NP-2) were then determined in the presence of 4′,6-diamidino-2-phenylindole (DAPI), ellipticine (EIPT), Amsacrine (AMSA), daunorubicin (DNR), anthraquinone-2-carboxylic acid (AQ2A), ethidium bromide (EB), and 9-aminoacridine (9-AA) (5 μM), respectively. UV melting profiles were measured by monitoring the absorbance at 520 nm at a scan rate of 0.5° C. min^−1. Melting temperatures were determined by taking the maxima of the first derivative of the melting curves. Control experiments were run by determining the melting temperatures of unmodified duplex DNA (DNA-1: 5′-TAACAATAA-3′, DNA-2: 5′-TTATTGTTA-3′) in the presence of all seven intercalators shown in Table 1.

[2] = tested on: unmodified duplex DNA (DNA-1: 5′-TAACAATAA-3′, DNA-2: 5′-TTATTGTTA-3′); experiment: Melting temperature of solution-phase unmodified duplex DNA (no nanoparticles); conditions: for Tm, melting temperature of solution-phase unmodified DNA: 2 uM duplex DNA, 5 uM DNA binder, control (no DNA binder) 19.1; for relative trend in binding strength: from control experiments, Tm of solution-phase unmodified DNA (Table 2)
Procedure: as §2
To determine the Tm of the duplex DNA in the presence of DNA binders, 2 μM duplex DNA and 5 μM DNA binder were combined in 0.3 M NaCl 10 mM PBS. To determine the Tm of the triplex DNA in the presence of DNA binders, 1 μM of each strand and 6 μM of each DNA binder were combined in 0.5 M NaCl 10 mM PBS. UV-vis melting curves were measured on a CARRY 500 spectrophotometer equipped with a circulating bath. The melting process was monitored by measuring the change in extinction at 260 nm. The solutions were stirred continuously with a magnetic stir bar as the solution temperature was increased at a rate of 0.5° C./min. The first derivative generated from the melting curves was used to determine the Tm.

[3] = tested on: duplex DNA between NP-1 and NP-2; experiment: Naked-eye color change of NP-1/NP-2 nanoassembly at specific temperatures; conditions: for color of nanoassembly: NP-1 and NP-2 1.5 nM each, intercalator 5 μM; for trend of intercalator binding affinities for DNA: from the color change with temperature
Excerpt: as §1
In general, assay methods that can detect drug candidates by the naked eye, without resorting to any instrumentation, are convenient, and for this reason, an assay that could seem for drug candidates based on DNA intercalation would be of great interest. […] As the temperature increases, the color change from blue to red occurs at specific temperatures. At 25° C. all eight cells (one control and seven intercalators) appear light blue/purple in color. At 30° C., the nanoassemblies containing the control and weak intercalators turn red in color leaving only the nanoassemblies containing DAPI, DNR, and EB as blue/purple.

[4] = tested on: duplex DNA on chip surface; experiment: Chip-based scanometric detection of duplex DNA binders (silver enhancement); conditions: binder 5 μM
Procedure: N-Hydroxysuccinimide-activated Codelink glass microarray slides (Amersham, G. E. Healthcare) were arrayed with amine-terminated oligonucleotides (5′-TAA CAA TAA-A10-NH2-3′, Integrated DNA Technologies, Inc.) according to the manufacturer's protocol. The oligonucleotides were printed in triplicate using a GME 418 robotic pin-and-ring microarrayer (Affymetrix).
For scanometric detection of duplex or triplex DNA binding molecules, Au nanoparticles (1 nM) and DNA binding molecules (5 μM) in 10 mM PBS buffer of varying NaCl concentrations were added to the microarray slide under hybridization wells (Nanosphere, Inc.). For detection of triplex binders, 150 nM DNA-3 was added. DNA hybridization proceeded for 30 min (for duplex DNA binders) or 1 h (for triplex DNA binders) in a humidity chamber. After hybridization, the slides were washed three times with 0.5 M NaNO3 containing 0.02% Tween 20. The arrays were dried using a benchtop spinner. Silver enhancement solution (Nanosphere, Inc.) was added for Au-NP signal amplification (1 mL total volume/array, 1.5-min development time for duplex DNA binding molecules and 3 min for triplex binding molecules). The reaction was terminated by washing the slides with NANOpure® water and spin-drying. Light-scattering images from the silver-enhanced chips were recorded using the high-resolution Verigene ID system (Nanosphere, Inc.).
Capture strands of synthetic oligonucleotides are patterned on a glass chip using a microarrayer. The DNA chip is then exposed to DNA functionalized Au nanoparticles (complementary to the capture sequence) and a duplex DNA binder. […]
The hybridization of single stranded DNA to form duplex DNA is a reversible process and the stability of the duplex is affected by several factors such as temperature and salt concentration. […] Therefore, by performing the nanoparticle hybridization process in the presence of different duplex DNA binders as a function of temperature, the relative binding strength of duplex DNA binders can be determined.

SMILES	Tm^a, melting temperature of nanoassemblies [1] [°C]	Tm, melting temperature of solution-phase unmodified DNA [2] [°C]	color of nanoassembly ([3]; 30° C.)	color of nanoassembly ([3]; 40° C.)	trend of intercalator binding affinities for DNA [3]	signal after silver enhancement ([4]; hybridization at 30° C.)	signal after silver enhancement ([4]; temperature further increased above 30° C.)	relative trend in binding strength [2]
Nc1c2ccccc2nc2ccccc12 [9-AA, 9-aminoacridine]	30.9	19.3	–	–	–	–	–	–
O=C(O)c1ccc2c(c1)C(=O)c1ccccc1C2=O [AQ2A, anthraquinone-2-carboxylic acid]	28.5	19.4	–	–	–	–	–	–
N=C(N)c1ccc(-c2cc3ccc(C(=N)N)cc3[nH]2)cc1 [DAPI, 4′,6-diamidino-2-phenylindole]	50.4	27.8	blue/purple	turn red except the nanoassembly containing DAPI	DAPI>DNR˜EB>other intercalators	leaving the intermediate and strong DNA binders	leaving only the strong duplex DNA binder	DAPI>DNR>EB>other intercalators
COc1cccc2c1C(=O)c1c(O)c3c(c(O)c1C2=O)C[C@@](O)(C(C)=O)C[C@@H]3O[C@H]1C[C@H](N)[C@H](O)[C@H](C)O1 [DNR, daunorubicin]	38.4	25.4	blue/purple	–	DAPI>DNR˜EB>other intercalators	leaving the intermediate and strong DNA binders	–	DAPI>DNR>EB>other intercalators
Cc1c2ccncc2c(C)c2c1[nH]c1ccccc12 [EIPT, ellipticine]	29.2	20.5	–	–	–	–	–	–
